# Where two headings read alike, the source gives them in different places.
# How the values were obtained:
# NCI-H1975-Luc cells = assay: Intracranially implanted NCI-H1975-Luc tumor efficacy study in mice (BLI and survival); format: in vivo
# Experimental: N-(2-(2-(Dimethylamino)ethoxy)-4-methoxy-5-((4-(1-methyl-1H-indol-3-yl)pyrimidin-2-yl)amino)phenyl)acrylamide methanesulfonate (1⋅Ms; C27H30N6O3.1.06 CH3SO3H. MW=486.58, FW=588.45, purity=100%) was formulated in a vehicle of 1% polysorbate 80 in water. The complete vehicle was added to the pre-weighed compound to achieve a 5 mg/mL stock solution, suitable for treatment of the 50 mg/kg dose level. The mixture was vortexed for approximately one minute resulting in a light yellow solution with a pH value of 7. The dosing solution was prepared fresh daily.
# Female Envigo Nude mice (Hsd:Athymic Nude-Foxn1^nu) were used. They were 6-7 weeks old on Day 1 of the experiment. The animals were fed irradiated Harlan 2918.15 Rodent Diet and water ad libitum. Animals were housed in static cages with Bed-O'Cobs™ bedding inside Biobubble® Clean Rooms that provide H. E. P. A filtered air into the bubble environment at 100 complete air changes per hour. All treatments, body weight determinations, and tumor measurements were carried out in the bubble environment. The environment was controlled to a temperature range of 70±2 OF and a humidity range of 30-70%.
# NCI-H1975-Luc cells were obtained from Clovis. They were grown in RPMI 1640 medium which was modified with 1 mM Na pyruvate+2 mM L-glutamine+10 mM HEPES+2.5 g/L glucose+5 ug/mL blasticidin and supplemented with 10% non-heat-inactivated Fetal Bovine Serum (FBS) and 1% 100× Penicillin/Streptomycin/L-Glutamine (PSG). The growth environment was maintained in an incubator with a 5% CO2 atmosphere at 37° C. When expansion was complete, the cells (passage 4) were trypsinized using 0.25% trypsin-EDTA solution. Following cell detachment, the trypsin was inactivated by dilution with complete growth medium and any clumps of cells were separated by pipetting. The cells were centrifuged at 200 ref for 8 minutes at 4° C. the supernatant was aspirated, and the pellet was re-suspended in cold Dulbecco's Phosphate Buffered Saline (DPBS) by pipetting. An aliquot of the homogeneous cell suspension was diluted in a trypan blue solution and counted using a Luna automated cell counter to determine a pre-implantation cell viability. The cell suspension was centrifuged at 200 ref for 8 minutes at 4° C. The supernatant was aspirated and the cell pellet was re-suspended in cold serum-free medium to generate a final concentration of 1.00E+08 trypan-excluding cells/mL. The cell suspension was maintained on wet ice during implantation. Following implantation, an aliquot of the remaining cells was diluted with a trypan blue solution and counted to determine the post-implantation cell viability.
# Test mice were implanted intracranially on Day 0 with 1.00E+06 cells per 10 μL as per the protocol (Appendix 1). For aseptic surgical implantation, mice were injected with 0.2 mg/kg buprenorphine and anesthetized using 2% isoflurane in air. The mice were then secured in a stereotaxic frame (ASI instruments, Inc.) using non-rupture ear bars. Ocular ointment was applied to the eyes of the mice to prevent drying during surgery. A re-circulating 37° C. water heated pad was used to maintain the animal's body temperature during the implantation procedure. Once in the stereotaxic frame, the cranium was swabbed with alternating chlorhexidine solution and 70% ethanol-saturated swabs to disinfect the skin surface and prepare for the incision. A 1 cm longitudinal incision was made centrally over bregma of the cranium using a #15 BD scalpel blade. The incision was retracted using small, serrated serrefines. The thin layer of connective tissue covering the surface of the skull was removed using dry cotton swabs under light pressure. Bleeding vessels were cauterized to prevent blood loss. A 0.9 mm drill bit was then centered over bregma, moved 2 mm right lateral, 1 mm anterior to the coronal suture and lowered to score the surface of the skull using the stereotaxic electrode manipulator arm. […]
# [1] = Pharmacokinetics in male SD rats dosed PO (plasma and brain); format: in vivo, rat; settings: male SD rats PO 5 mg/kg; for Cmax: 0.5% methylcellulose vehicle; for MRT inf: read-out: MRT0-inf; for MRT last: read-out: MRT0-last
# [2] = system: kinase domain of the T790M double mutant; assay: Inhibition of EGFR T790M double mutant kinase domain; format: biochemical; settings: in addition to the activating mutations
# [3] = 50 mg/kg, PO, QD×14 (Days 5-18)
compound,measurement,setting,value
"C=CC(=O)Nc1cc(Nc2nccc(-c3cn(C)c4ccccc34)n2)c(OC)cc1OCCN(C)C [1⋅Ms, N-(2-(2-(Dimethylamino)ethoxy)-4-methoxy-5-((4-(1-methyl-1H-indol-3-yl)pyrimidin-2-yl)amino)phenyl)acrylamide methanesulfonate]",increase in lifespan,NCI-H1975-Luc cells; [3],15 days
same,BLI derived Day 13 % T/C,"NCI-H1975-Luc cells; 50 mg/kg, PO, QD×14 (Days 5-18), median BLI signal treated/control ×100, P<0.05",1%
same,% ILS (life-span increase vs. vehicle),"NCI-H1975-Luc cells; 50 mg/kg, PO, QD×14 (Days 5-18), methanesulfonate",107%
same,median lifespan,"NCI-H1975-Luc cells; 50 mg/kg, PO, QD×14 (Days 5-18), p<0.001",29.0 days
same,tolerability of treatment,"NCI-H1975-Luc cells; 50 mg/kg, PO, QD×14 in nude mice",well-tolerated
same,animals with complete regressions,"NCI-H1975-Luc cells; By Day 18, 50 mg/kg PO QD×14, CR = BLI below 2.0E+05 photons/sec",none
same,animals with partial tumor regressions,"NCI-H1975-Luc cells; By Day 18, 50 mg/kg PO QD×14, PR = ≥50% decrease in tumor BLI signal",100%
same,AUC0-inf,[1]; Brain,5085 ng·h/g
same,AUC0-last,[1]; Brain,5047 ng·h/g
same,AUCExtra,[1]; Brain,0.746%
same,AUMCExtra,[1]; Brain,2.57%
same,Tlast,[1]; Brain,18.0 h
same,AUCExtra,[1]; Plasma,0.593%
same,AUMCExtra,[1]; Plasma,2.42%
same,Tlast,[1]; Plasma,18.0 h
same,Kp,"[1]; rat, Brain (vs plasma), read-out: AUC Ratio",9.44
same,Tmax,"[1]; rat, Brain",2 h
same,half-life,"[1]; rat, Brain",121 min
same,Cmax,"[1]; rat, Brain",606 ng/g
same,MRT inf,"[1]; rat, Brain",6.07 h
same,MRT last,"[1]; rat, Brain",5.95 h
same,AUC(0-t),"[1]; rat, Plasma",535 ng·h/mL
same,Tmax,"[1]; rat, Plasma",2 h
same,half-life,"[1]; rat, Plasma",118 min
same,Cmax,"[1]; rat, Plasma",96.3 ng/mL
same,AUC0-inf,"[1]; rat, Plasma, read-out: AUC0-inf",538 ng·h/mL
same,MRT inf,"[1]; rat, Plasma",5.1 h
same,MRT last,"[1]; rat, Plasma",5.01 h
C=CC(=O)Nc1cc(Nc2nccc(-c3cn(C)c4ccccc34)n2)c(OC)cc1OCCN(C)C [Compound 1],% ILS (life-span increase vs. vehicle),NCI-H1975-Luc cells; [3],greater than 100%
same,inhibition of the kinase domain of the T790M double mutant,[2],effectively inhibits

# — US11052086B2, “2-anilinopyrimidine derivatives as therapeutic agents for treatment of brain cancers” (Beta Pharma, Inc., priority 2016, dated 2021)
